Among the data in paper PMC8409088 (ChemistryOpen, 2020) are Ki values, retold here.

Counter-ions that a name gives are not always drawn.

For the assay, the target named is glutaminyl cyclase (QC, QPCT) (Homo sapiens, UniProt Q16769). Put plainly: glutamic dehydrogenase-coupled assay, NADH absorbance at […] nm. It counts as biochemical.
glutaminyl cyclase (QC, QPCT), sequence (Q16769 33-361): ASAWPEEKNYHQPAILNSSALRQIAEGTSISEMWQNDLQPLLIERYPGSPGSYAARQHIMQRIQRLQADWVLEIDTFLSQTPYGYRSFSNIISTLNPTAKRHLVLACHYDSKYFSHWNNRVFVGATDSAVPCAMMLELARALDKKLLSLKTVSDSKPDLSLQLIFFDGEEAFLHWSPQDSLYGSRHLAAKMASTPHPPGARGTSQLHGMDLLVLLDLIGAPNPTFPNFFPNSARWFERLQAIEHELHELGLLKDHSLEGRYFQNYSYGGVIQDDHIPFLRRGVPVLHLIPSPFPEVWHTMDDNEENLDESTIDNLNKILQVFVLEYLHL

The compound `CC[C@@H]1C(=O)OC[C@@H]1Cc1cncn1C` [Pilocarpine HCl] had a Ki of 13.2 ± 7.27 mM. The figure for `O=C(/C=C/c1cccc(S(=O)(=O)Nc2ccccc2)c1)NO` [Belinostat (PXD101)] is 2.98 ± 0.67 mM; for `Cc1cccc(Cc2c[nH]cn2)c1C` [Detomidine HCl] it is 2.58 ± 0.28 mM.

For the compound `Cc1cnc(C(=O)O)c[n+]1[O-]` [Acipimox], the inhibition constant Ki was 6.23 ± 0.85 mM.
